Reference: US20250098679A1, “HERBICIDAL PYRIDONE DERIVATIVES” (SYNGENTA CROP PROTECTION AG, priority 2021, published 2025)

Key:
Type in all cases: in vivo
Conditions in all cases: evaluated after 13 days
Setaria faberi (SETFA) [1] = experiment: Post-emergence Test, Setaria faberi (SETFA); parameters: key to percentage damage caused to the plant, SETFA (five-point scale): 5=81-100%, 4=61-80%, 3=41-60%, 2=21-40%, 1=0-20% damage
Method in brief: (§1)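 Scores are percentage plant damage on a 1–5 scale (1=0-20%, 2=21-40%, 3=41-60%, 4=61-80%, 5=81-100%), read 13 days after treatment. Pots received a spray at 1000 g/ha unless otherwise stated, formulated in acetone/water (50:50) containing 0.5% Tween 20.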

[2] = test system: Amaranthus palmeri (AMAPA); experiment: Pre-emergence Test, Amaranthus palmeri (AMAPA)
[3] = test system: Echinochloa crus-galli (ECHCG); experiment: Post-emergence Test, Echinochloa crus-galli (ECHCG); parameters: key to percentage damage caused to the plant, ECHCG (five-point scale): 5=81-100%, 4=61-80%, 3=41-60%, 2=21-40%, 1=0-20% damage
Method in brief: as §1

[4] = test system: Amaranthus retoflexus (AMARE); experiment: Pre-emergence Test, Amaranthus retoflexus (AMARE)
[5] = test system: Amaranthus palmeri (AMAPA); experiment: Post-emergence Test, Amaranthus palmeri (AMAPA); parameters: key: 5=81-100%, 4=61-80%, 3=41-60%, 2=21-40%, 1=0-20% damage
Method in brief: as §1

[6] = test system: Ipomoea hederacea (IPOHE); experiment: Pre-emergence Test, Ipomoea hederacea (IPOHE)
Zea mays (ZEAMX) [7] = experiment: Pre-emergence Test, Zea mays (ZEAMX)
[8] = test system: Ipomoea hederacea (IPOHE); experiment: Post-emergence Test, Ipomoea hederacea (IPOHE); parameters: key to percentage damage caused to the plant, IPOHE (five-point scale): 5=81-100%, 4=61-80%, 3=41-60%, 2=21-40%, 1=0-20% damage
Method in brief: as §1

[9] = test system: Echinochloa crus-galli (ECHCG); experiment: Pre-emergence Test, Echinochloa crus-galli (ECHCG)
Zea mays (ZEAMX) [10] = experiment: Post-emergence Test, Zea mays (ZEAMX); parameters: key to percentage damage caused to the plant, ZEAMX (five-point scale): 5=81-100%, 4=61-80%, 3=41-60%, 2=21-40%, 1=0-20% damage
Method in brief: as §1

Setaria faberi (SETFA) [11] = experiment: Pre-emergence Test, Setaria faberi (SETFA)
[12] = test system: Amaranthus retoflexus (AMARE); experiment: Post-emergence Test, Amaranthus retoflexus (AMARE); parameters: key to percentage damage caused to the plant, AMARE (five-point scale): 5=81-100%, 4=61-80%, 3=41-60%, 2=21-40%, 1=0-20% damage
Method in brief: as §1

Structure (SMILES): CCn1c(Cn2ccc(Cl)n2)cc(=O)c(C(=O)O)c1-c1ccc(S(C)(=O)=O)c(Cl)c1 [Compound 130, 2-(3-chloro-4-methylsulfonyl-phenyl)-6-[(3-chloropyrazol-1-yl)methyl]-1-ethyl-4-oxo-pyridine-3-carboxylic acid]
- percentage damage caused to the plant, SETFA (five-point scale) (Setaria faberi (SETFA) [1]; 1000 g/ha): 1 (1=0-20%)
- Pre-emergence Test AMAPA, percentage damage caused to the plant (five-point scale) ([2]; 1000 g/ha): 1 (1=0-20%)
- percentage damage caused to the plant, ECHCG (five-point scale) ([3]; 1000 g/ha): 0
- Pre-emergence Test AMARE, percentage damage caused to the plant (five-point scale) ([4]; 1000 g/ha): 1 (1=0-20%)
- percentage damage caused to the plant, AMAPA (five-point scale) ([5]; 1000 g/ha): 2 (2=21-40%)
- Pre-emergence Test IPOHE, percentage damage caused to the plant (five-point scale) ([6]; 1000 g/ha): 0
- Pre-emergence Test ZEAMX, percentage damage caused to the plant (five-point scale) (Zea mays (ZEAMX) [7]; 1000 g/ha): 0
- percentage damage caused to the plant, IPOHE (five-point scale) ([8]; 1000 g/ha): 1 (1=0-20%)
- Pre-emergence Test ECHCG, percentage damage caused to the plant (five-point scale) ([9]; 1000 g/ha): 0
- percentage damage caused to the plant, ZEAMX (five-point scale) (Zea mays (ZEAMX) [10]; 1000 g/ha): 0
- Pre-emergence Test SETFA, percentage damage caused to the plant (five-point scale) (Setaria faberi (SETFA) [11]; 1000 g/ha): 0
- percentage damage caused to the plant, AMARE (five-point scale) ([12]; 1000 g/ha): 1 (1=0-20%)

Structure (SMILES): CCn1c(Cn2cc(F)cn2)cc(=O)c(C(=O)O)c1-c1ccc(Cl)c(Cl)c1 [Compound 9, 2-(3,4-dichlorophenyl)-1-ethyl-6-[(4-fluoropyrazol-1-yl)methyl]-4-oxo-pyridine-3-carboxylic acid]
- percentage damage caused to the plant, SETFA (five-point scale) (Setaria faberi (SETFA) [1]; 250 g/Ha): 4 (4=61-80%)
- percentage damage caused to the plant, SETFA (five-point scale) (Setaria faberi (SETFA) [1]; 1000 g/ha): 3 (3=41-60%)
- Pre-emergence Test AMAPA, percentage damage caused to the plant (five-point scale) ([2]; 250 g/Ha (*)): 1 (1=0-20%)
- Pre-emergence Test AMAPA, percentage damage caused to the plant (five-point scale) ([2]; 1000 g/ha): 2 (2=21-40%)
- percentage damage caused to the plant, ECHCG (five-point scale) ([3]; 250 g/Ha): 3 (3=41-60%)
- percentage damage caused to the plant, ECHCG (five-point scale) ([3]; 1000 g/ha): 4 (4=61-80%)
- Pre-emergence Test AMARE, percentage damage caused to the plant (five-point scale) ([4]; 250 g/Ha (*)): 0
- Pre-emergence Test AMARE, percentage damage caused to the plant (five-point scale) ([4]; 1000 g/ha): 1 (1=0-20%)
- percentage damage caused to the plant, AMAPA (five-point scale) ([5]; 250 g/Ha): 0
- percentage damage caused to the plant, AMAPA (five-point scale) ([5]; 1000 g/ha): 1 (1=0-20%)
- Pre-emergence Test IPOHE, percentage damage caused to the plant (five-point scale) ([6]; 250 g/Ha (*)): 1 (1=0-20%)
- Pre-emergence Test IPOHE, percentage damage caused to the plant (five-point scale) ([6]; 1000 g/ha): 0
- Pre-emergence Test ZEAMX, percentage damage caused to the plant (five-point scale) (Zea mays (ZEAMX) [7]; 250 g/Ha (*)): 0
- Pre-emergence Test ZEAMX, percentage damage caused to the plant (five-point scale) (Zea mays (ZEAMX) [7]; 1000 g/ha): 0
- percentage damage caused to the plant, IPOHE (five-point scale) ([8]; 250 g/Ha): 3 (3=41-60%)
- percentage damage caused to the plant, IPOHE (five-point scale) ([8]; 1000 g/ha): 1 (1=0-20%)
- Pre-emergence Test ECHCG, percentage damage caused to the plant (five-point scale) ([9]; 250 g/Ha (*)): 5 (5=81-100%)
- Pre-emergence Test ECHCG, percentage damage caused to the plant (five-point scale) ([9]; 1000 g/ha): 5 (5=81-100%)
- percentage damage caused to the plant, ZEAMX (five-point scale) (Zea mays (ZEAMX) [10]; 250 g/Ha): 0
- percentage damage caused to the plant, ZEAMX (five-point scale) (Zea mays (ZEAMX) [10]; 1000 g/ha): 2 (2=21-40%)
- Pre-emergence Test SETFA, percentage damage caused to the plant (five-point scale) (Setaria faberi (SETFA) [11]; 250 g/Ha (*)): 5 (5=81-100%)
- Pre-emergence Test SETFA, percentage damage caused to the plant (five-point scale) (Setaria faberi (SETFA) [11]; 1000 g/ha): 5 (5=81-100%)
- percentage damage caused to the plant, AMARE (five-point scale) ([12]; 250 g/Ha): 0
- percentage damage caused to the plant, AMARE (five-point scale) ([12]; 1000 g/ha): 0

Structure (SMILES): CCn1c(Cn2nc(C(F)(F)F)cc2C)cc(=O)c(C(=O)O)c1-c1ccc(Cl)c(Cl)c1 [Compound 13a, 2-(3,4-dichlorophenyl)-1-ethyl-6-[[5-methyl-3-(trifluoromethyl)pyrazol-1-yl]methyl]-4-oxo-pyridine-3-carboxylic acid]
- percentage damage caused to the plant, SETFA (five-point scale) (Setaria faberi (SETFA) [1]; 250 g/Ha): 3 (3=41-60%)
- percentage damage caused to the plant, SETFA (five-point scale) (Setaria faberi (SETFA) [1]; 1000 g/ha): 4 (4=61-80%)
- Pre-emergence Test AMAPA, percentage damage caused to the plant (five-point scale) ([2]; 250 g/Ha (*)): 1 (1=0-20%)
- Pre-emergence Test AMAPA, percentage damage caused to the plant (five-point scale) ([2]; 1000 g/ha): 0
- percentage damage caused to the plant, ECHCG (five-point scale) ([3]; 250 g/Ha): 2 (2=21-40%)
- percentage damage caused to the plant, ECHCG (five-point scale) ([3]; 1000 g/ha): 4 (4=61-80%)
- Pre-emergence Test AMARE, percentage damage caused to the plant (five-point scale) ([4]; 250 g/Ha (*)): 0
- Pre-emergence Test AMARE, percentage damage caused to the plant (five-point scale) ([4]; 1000 g/ha): 0
- percentage damage caused to the plant, AMAPA (five-point scale) ([5]; 250 g/Ha): 0
- percentage damage caused to the plant, AMAPA (five-point scale) ([5]; 1000 g/ha): 2 (2=21-40%)
- Pre-emergence Test IPOHE, percentage damage caused to the plant (five-point scale) ([6]; 250 g/Ha (*)): 0
- Pre-emergence Test IPOHE, percentage damage caused to the plant (five-point scale) ([6]; 1000 g/ha): 0
- Pre-emergence Test ZEAMX, percentage damage caused to the plant (five-point scale) (Zea mays (ZEAMX) [7]; 250 g/Ha (*)): 0
- Pre-emergence Test ZEAMX, percentage damage caused to the plant (five-point scale) (Zea mays (ZEAMX) [7]; 1000 g/ha): 0
- percentage damage caused to the plant, IPOHE (five-point scale) ([8]; 250 g/Ha): 3 (3=41-60%)
- percentage damage caused to the plant, IPOHE (five-point scale) ([8]; 1000 g/ha): 2 (2=21-40%)
- Pre-emergence Test ECHCG, percentage damage caused to the plant (five-point scale) ([9]; 250 g/Ha (*)): 2 (2=21-40%)
- Pre-emergence Test ECHCG, percentage damage caused to the plant (five-point scale) ([9]; 1000 g/ha): 3 (3=41-60%)
- percentage damage caused to the plant, ZEAMX (five-point scale) (Zea mays (ZEAMX) [10]; 250 g/Ha): 0
- percentage damage caused to the plant, ZEAMX (five-point scale) (Zea mays (ZEAMX) [10]; 1000 g/ha): 3 (3=41-60%)
- Pre-emergence Test SETFA, percentage damage caused to the plant (five-point scale) (Setaria faberi (SETFA) [11]; 250 g/Ha (*)): 2 (2=21-40%)
- Pre-emergence Test SETFA, percentage damage caused to the plant (five-point scale) (Setaria faberi (SETFA) [11]; 1000 g/ha): 4 (4=61-80%)
- percentage damage caused to the plant, AMARE (five-point scale) ([12]; 250 g/Ha): 1 (1=0-20%)
- percentage damage caused to the plant, AMARE (five-point scale) ([12]; 1000 g/ha): 0
